# According to patent publication US8633025B2, “Generation of neuronal cells from embryonic stem cells” (Universite Libre de Bruxelles, priority 2007, dated 2014):
# B1: Dkk: Dickkopf-1 (Dkk), a soluble antagonist of the Wnt pathway (protein, UniProt O94907 32-266, looked up)
# Dickkopf-related protein 1: TLNSVLNSNAIKNLPPPLGGAAGHPGSAVSAAPGILYPGGNKYQTIDNYQPYPCAEDEECGTDEYCASPTRGGDAGVQICLACRKRRKRCMRHAMCCPGNYCKNGICVSSDQNHFRGEIEETITESFGNDHSTLDGYSRRTTLSSKMYHTKGQEGSVCLRSSDCASGLCCARHFWSKICKPVLKEGQVCTKHRRKGSHGLEIFQRCYCGEGLSCRIQKDHHQASNSSRLHTCQRH
# How the values were obtained:
# [1] = test system: ES cell-derived neurons; test: Whole-cell patch clamp recording of spontaneous post-synaptic currents; type: cell-based, mouse; settings: for Inhibition of recorded ePSCs: NBQX 5 μM and APV 50 μM
# Experimental: Electrophysiological recordings were performed at room temperature (20-25° C.) in an external solution (ACSF) containing 120 mM NaCl, 26 mM NaHCO3, 11 mM D-glucose, 2 mM KCl, 2 mM CaCl2, 1.2 mM MgSO4 and 1.2 mM KH2PO4 with an osmolarity of 290 mOsm. The recording chamber was constantly superfused at a flow rate of 1 ml/min. […] Both pipette solutions were adjusted to pH 7.3 and 300-330 mOsm/l. Whole-cell patch clamp recordings were carried out with an EPC10 amplifier (HEKA, Elektronik, Lambrecht/Pfalz, Germany) in voltage clamp mode. Signals were filtered at 4 kHz using the built-in filter of EPC10 and digitally sampled at 20 kHz except spontaneous postsynaptic currents signals that were filtered at 2.5 kHz and digitally sampled at 5 kHz. Voltage protocol generation, data acquisition and analysis were made with Pulse 8.65 (HEKA, Elektronik, Lambrecht/Pfalz, Germany). The presence of spontaneous excitatory postsynaptic currents (sEPSCs) was assessed by clamping neurons to −60 mV in the presence of 100 μM picrotoxin. The presence of spontaneous inhibitory postsynaptic currents (sIPSCs) was assessed by clamping neurons to […] in the presence of 1 μM TTX, 5 μM 2,3-dioxo-6-nitro-1,2,3,4-tetrahydrobenzo[f]quinoxaline-7-sulfonamide disodium salt (NBQX) and 50 μM D-(−)-2-amino-5-phosphonopentanoic acid (APV). To further check the nature of spontaneous postsynaptic currents, NBQX (5 μM) and APV (50 μM) were used to block AMPA and NMDA receptors respectively and picrotoxin (100 μM) was used to block GABAA receptors. Fifteen neurons were recorded for each type of PSC and for each condition (DDM or DDM+cyclo).
# [2] = test system: ES cell-derived neurons; test: Morphology and Pyramidal Morphology Index (PMI) of MAP2-positive neurons; type: cell-based, mouse
# Text: Pictures of at least 100 neurons stained for MAP2 were to taken randomly for each condition and from two different experiments and the quantification was done blindly in Adobe Photoshop Software using a 25 μm circle drawn on a superposed layer.
# [3] = test system: ES cell-derived neurons; test: Slice overlay assay on postnatal cortical slices, radial orientation; type: cell-based; settings: 21 days of differentiation, four days after plating on mouse postnatal cortical slices
# [4] = test system: ES cell-derived neurons; test: Layer-specific cortical markers among Tuj1+ neurons (immunofluorescence); type: cell-based, mouse; settings: of all Tuj1+ neurons, days 16-21
# Experimental: Medium was removed and cells were rinsed with PBS then fixed for 30 min in 4% paraformaldehyde (PFA) in PBS, pH 7.4 at 4° C. PFA was removed and cells were rinsed three times with PBS. Blocking of unspecific antibody activity and permeabilization was done in PBS supplemented with 5% horse serum (Invitrogen-Gibco), 3% bovine serum albumin (Sigma) and 0.3% Triton X-100 (Sigma). Incubation with primary antibodies was done in PBS supplemented with 1% horse serum, 3% bovine serum albumin and 0.1% Triton X-100 overnight at 4° C. Cells were rinsed three times with PBS and incubated with secondary antibodies in PBS supplemented with 1% horse serum, 3% bovine serum albumin and 0.1% Triton X-100 for one hour at room temperature then rinsed again three times with PBS. For double or multiple immunostaining, the process was repeated. […] For some antibodies, antigen retrieval was used before blocking: cells were boiled during 4×5 minutes in 10 mM citrate buffer (pH 6.0) and cooled down to room temperature during 20 minutes.
# (§1) For quantification of the proportion of cells expressing a specific marker (differentiation markers, region-specific markers, neurotransmitter transporter proteins or layer-specific markers), at least 300 cells from 3 independent experiments (at least 100 cells from each experiment) were counted for each time-point studied.
# We studied the expression of the following layer-specific markers corresponding to the major subtypes of cortical neurons generated in vivo in the mouse, including: Tbr1 and reelin for preplate neurons and Cajal-Retzius cells; Tle4, Tbr1, CTIP2, Otx1, Er81, FoxP2 for deep ([…]) layer neurons; Satb2 and Cux1 for upper (II/III/IV) layer neurons and callosal projection neurons of layer V (see FIG. 5).
# [5] = test system: ES cells; test: Regional identity markers among Nestin-positive neural progenitors from ES cells differentiated in DDM+cyclo (immunofluorescence); type: cell-based, mouse
# Experimental: Similar results were obtained with several ES cell lines, including distinct derivatives of E14 and J1 cells. ES cells were trypsinised, dissociated and plated at a density of 5×10^3 cells/cm^2 on gelatin-coated cell culture plastic dishes in ES medium. When needed, the cells were plated for 15-30 minutes on gelatin coated-dishes, to let the MEFS adhere and the supernatant containing ES cells only was recovered and subsequently replated on gelatin coated dishes. After adhesion, medium was changed to “Default Differentiation Medium” (DDM). DDM consists of DMEM/F12 (Invitrogen-Gibco) supplemented with 1×N2 supplement (100×N2 supplement consists of 8.61 μM insulin, 1 mM transferrin, 2 μM progesterone, 10.01 mM putrescine and 3.01 μM selenite; Invitrogen-Gibco), 2 mM glutamine (Invitrogen-Gibco), 1×MEM-nonessential amino acids (Invitrogen-Gibco), 1 mM sodium pyruvate (Invitrogen-Gibco), 110 μM beta-mercaptoethanol (Sigma) and 0.5 mg/ml Bovine Serum Albumine, Fraction V (Invitrogen-Gibco). Medium was changed every two days.
# Medium was removed and cells were rinsed with PBS then fixed for 30 min in 4% paraformaldehyde (PFA) in PBS, pH 7.4 at 4° C. PFA was removed and cells were rinsed three times with PBS. Blocking of unspecific antibody activity and permeabilization was done in PBS supplemented with 5% horse serum (Invitrogen-Gibco), 3% bovine serum albumin (Sigma) and 0.3% Triton X-100 (Sigma). Incubation with primary antibodies was done in PBS supplemented with 1% horse serum, 3% bovine serum albumin and 0.1% Triton X-100 overnight at 4° C. Cells were rinsed three times with PBS and incubated with secondary antibodies in PBS supplemented with 1% horse serum, 3% bovine serum albumin and 0.1% Triton X-100 for one hour at room temperature then rinsed again three times with PBS. For double or multiple immunostaining, the process was repeated. Nuclei were stained with bisbenzimide (Hoechst#33258; Sigma) and coverslips were mounted with glycergel (DAKO). For some antibodies, antigen retrieval was used before blocking: cells were boiled during 4×5 minutes in 10 mM citrate buffer (pH 6.0) and cooled down to room temperature during 20 minutes.
# as §1
# (§2) Experimental procedures were as described in Example 1. […] Ethanol was used as control.
# [6] = test system: ES cell-derived neural progenitors; settings: short BrdU pulse
# Experimental: as §2
# For long term pulse chase experiments, BrdU (Becton Dickinson) was added to the differentiation medium on the different days during 24 h at a final concentration of 10 μM. Cells were dissociated after 21 days of differentiation and plated on coated coverslips for an additional day. For short-term BrdU uptake experiments, BrdU was added to the differentiation medium during 1 hour prior to cell dissociation and replating.
# For BrdU detection, medium was removed and cells were rinsed with PBS then fixed for 30 min in 4% paraformaldehyde (PFA) in PBS, pH 7.4 at 4° C. PFA was removed and cells were rinsed three times with PBS. BrdU was unmasked using an antigen retrieval method: cells were boiled during 4×5 minutes in 10 mM citrate buffer (pH 6.0) and cooled down to room temperature during 20 minutes. Immunostaining was performed as described above using mouse anti-BrdU (1/50, Becton Dickinson) or rat anti-BrdU (1/250, Abcam) antibodies. Multiple labelling was performed sequentially as described above.
# [7] = test system: ES cell-derived neurons; test: Neurotransmission markers among Tuj1-positive neurons derived from ES cells (immunofluorescence); type: cell-based, mouse; settings: of Tuj1-positive cells after 28 days of differentiation
# Experimental: Similar results were obtained with several ES cell lines, including distinct derivatives of E14 and J1 cells. ES cells were trypsinised, dissociated and plated at a density of 5×10^3 cells/cm^2 on gelatin-coated cell culture plastic dishes in ES medium. When needed, the cells were plated for 15-30 minutes on gelatin coated-dishes, to let the MEFS adhere and the supernatant containing ES cells only was recovered and subsequently replated on gelatin coated dishes. After adhesion, medium was changed to “Default Differentiation Medium” (DDM). DDM consists of DMEM/F12 (Invitrogen-Gibco) supplemented with 1×N2 supplement (100×N2 supplement consists of 8.61 μM insulin, 1 mM transferrin, 2 μM progesterone, 10.01 mM putrescine and 3.01 μM selenite; Invitrogen-Gibco), 2 mM glutamine (Invitrogen-Gibco), 1×MEM-nonessential amino acids (Invitrogen-Gibco), 1 mM sodium pyruvate (Invitrogen-Gibco), 110 μM beta-mercaptoethanol (Sigma) and 0.5 mg/ml Bovine Serum Albumine, Fraction V (Invitrogen-Gibco). Medium was changed every two days. […]
# as §1, with “studied. […]” for “studied.”
# [8] = test system: ES cell-derived neural progenitors; test: Regional markers among Nestin-positive progenitors after DDM+Shh or DDM+Dkk; type: cell-based, mouse; settings: 14 days
# Experimental: FIG. 12 illustrates that neural progenitors and neurons of ventral telencephalic identity (including cortical interneurons, striatal interneurons, striatal projections neurons) can be generated from ES cells following DDM+Shh (at 1-10 μM) or DDM+DDK Wnt inhibitor (at 100-300 ng/ml), or a combination of both (at 1 μM/100 ng/ml respectively). (A) Proportion of Nestin positive neural progenitors expressing specific neural regionalization markers following 14 days of differentiation in DDM or DDM+Shh or DDM+DKK. (B), (C) Proportion of VgluT1, VgluT2 and vGAT, and reelin, Tbr1, Isl1 among Tuj1 positive neurons after 21 days of differentiation in DDM alone or DDM+Shh or DDM+DKK, or DDM+Shh/DKK.
# To increase the proportion of ventral character of the ES cell-derived neural progenitors, we chose to increase Shh signalling, by adding soluble recombinant Shh to DDM, or to antagonize dorsalizing Wnt-signalling, by adding Dickkopf-1 (Dkk), a soluble antagonist of the Wnt pathway.
# [9] = neurons after 28 days following differentiation in DDM
# [10] = cyclopamine 1 μM day 2 to day 10, 14 days, of Nestin-positive cells
molecule,measurement,setting,value
"N[C@H](CCCP(=O)(O)O)C(=O)O [APV, D-(−)-2-amino-5-phosphonopentanoic acid]",Inhibition of recorded ePSCs,[1]; [9],selective inhibition
CC1=C2C[C@H]3[C@@H](CC=C4C[C@@H](O)CC[C@@]43C)[C@@H]2CC[C@]12O[C@@H]1C[C@H](C)CN[C@H]1[C@H]2C [cyclopamine],Neurons with PMI superior to the cut-off value,"[2]; cut-off 1.2 μm, of MAP2-positive neurons after 28 days of differentiation",77.23+/−4.17%
same,PMI compared with DDM conditions,"[2]; p<0.001, Mann-Whitney test",significantly higher PMI
same,Neurons showing a unipolar morphology,"[2]; semi-quantitative scoring, MAP2-positive neurons, 28 days",61.39+/−4.84%
same,Neurons displaying a radial orientation,[3],64.98+/−2.40%
same,GABAergic inhibitory post-synaptic currents (iPSCs) recorded,[1],no or little iPSCs could be recorded
same,Neurons displaying glutamatergic excitatory post-synaptic currents (ePSCs),[1],38.89+/−11.49%
same,CTIP2 expressing neurons,[4],36.01+/−1.52%
same,Cux1 expressing neurons,[4],10.56+/−0.80%
same,Otx1 expressing neurons,[4],15.42+/−1.06%
same,Satb2 expressing neurons,[4],7.60+/−0.78%
same,Tbr1 expressing neurons,[4],38.14+/−1.54%
same,reelin expressing neurons,[4],21.18+/−1.28%
same,Otx1-2 positive neural progenitors,"[5]; cyclopamine 1 μM day 2 to day 10, 14 days of differentiation, of Nestin-positive cells",75.57+/−1.21%
same,Gsh2 expression among neural progenitors,[5]; [10],1.37+/−0.61%
same,Nkx2.1 expression among neural progenitors,[5]; [10],1.87+/−1.10%
same,Nkx2.2 expression among neural progenitors,[5]; [10],4.05+/−1.10%
same,Otx1 expression among neural progenitors,[5]; [10],71.21+/−2.52%
same,Pax6 expression among neural progenitors,[5]; [10],73.03+/−2.44%
same,Effect on the neuralization process (pattern of pan-neural markers),"[5]; different time points, compared with DDM without cyclopamine",did not change significantly
same,"BrdU labelled neural progenitors, day 10",[6]; day 10,42.11+/−3.42%
same,"BrdU labelled neural progenitors, day 14",[6]; day 14,28.57+/−2.00%
same,VGluT1 expressing neurons,[7],70.04+/−2.98%
same,VGluT2 expressing neurons,[7],15.46+/−2.52%
"2,3-dioxo-6-nitro-1,2,3,4-tetrahydrobenzo[f]quinoxaline-7-sulfonamide disodium salt [NBQX]",Inhibition of recorded ePSCs,[1]; [9],selective inhibition
picrotoxin,Inhibition of recorded iPSCs,"[1]; neurons after 28 days following differentiation in DDM, picrotoxin 100 μM",selective inhibition
B1,Proportion of Nkx2.1 positive progenitors,"[8]; 300 ng/ml Dkk, of all Nestin-positive cells",29.0±2.0%
same,Expression of Pax6 among progenitors,"[8]; Dkk 300 ng/ml, of Nestin-positive cells",23.7±1.4%
